Measured values: US10597388B2, “Pyridazinone herbicides” (FMC CORPORATION, priority 2014, dated 2020)

Assays:
Format in all cases: in vivo
[1] = system: barnyardgrass (Echinochloa crus-galli); assay: Test C greenhouse herbicide test, pre- and postemergence
Summary of the method: (§1)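 Two application timings: at sowing into a soil/sand blend, and on 2–18 cm seedlings in peat-vermiculite potting mix. A non-phytotoxic, surfactant-containing solvent carried the compounds. Plants were compared with controls and rated visually on 0–100 after 13–15 d.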

[2] = system: blackgrass (Alopecurus myosuroides); assay: as above
Summary of the method: as §1

corn (Zea mays) = assay: as above
Summary of the method: as §1

[3] = system: crabgrass, large (large crabgrass, Digitaria sanguinalis); assay: as above
Summary of the method: as §1

[4] = system: foxtail, giant (giant foxtail, Setaria faberii); assay: as above
Summary of the method: as §1

[5] = system: galium (catchweed bedstraw, Galium aparine); assay: as above; conditions: for Plant response rating, Galium: Postemergence
Summary of the method: as §1

[6] = system: johnsongrass (Sorghum halepense); assay: as above
Summary of the method: as §1

[7] = system: morningglory (Ipomoea coccinea); assay: as above
Summary of the method: as §1

[8] = system: oilseed rape (Brassica napus); assay: as above
Summary of the method: as §1

[9] = system: pigweed (Amaranthus retroflexus); assay: as above
Summary of the method: as §1

[10] = system: ragweed (common ragweed, Ambrosia elatior); assay: as above
Summary of the method: as §1

soybean (Glycine max) = assay: as above
Summary of the method: as §1

[11] = system: velvetleaf (Abutilon theophrasti); assay: as above
Summary of the method: as §1

[12] = system: waterhemp (common waterhemp, Amaranthus rudis); assay: as above
Summary of the method: as §1

[13] = system: wheat (winter wheat, Triticum aestivum); assay: as above
Summary of the method: as §1

kochia (Kochia scoparia) = assay: Test C greenhouse herbicide test, postemergence; conditions: for Plant response rating, Kochia: Postemergence
Summary of the method: (§2)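 Greenhouse postemergence spray on plants 2–18 cm tall; response judged visually after 13–15 d relative to untreated controls using a 0 (none) to 100 (full control) scale.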

[14] = system: oat, wild (wild oat, Avena fatua); assay: Test C greenhouse herbicide test, postemergence; conditions: for Plant response rating, Oat, Wild: Postemergence
Summary of the method: as §2

[15] = Postemergence, 31 g ai/ha, 0 to 100 scale (0 no effect, 100 complete control)
[16] = Postemergence, 125 g ai/ha, scale 0 to 100, 0 is no effect, 100 is complete control
[17] = Postemergence, 250 g ai/ha, scale 0 to 100, 0 no effect, 100 complete control, 13 to 15 d
[18] = Preemergence, 31 g ai/ha, scale 0 to 100, 0 is no effect, 100 is complete control
[19] = Preemergence, 62 g ai/ha, scale 0 to 100, 0 is no effect, 100 is complete control
[20] = Preemergence, 125 g ai/ha, scale 0 to 100, 0 is no effect, 100 is complete control
[21] = Preemergence, 250 g ai/ha, scale 0 to 100 (0 no effect, 100 complete control)
[22] = postemergence, 62 g ai/ha, scale 0 to 100, 0 no effect, 100 complete control
[23] = 125 g ai/ha, scale 0 to 100, 0 is no effect, 100 is complete control
[24] = 250 g ai/ha, scale 0 to 100, 0 no effect, 100 complete control, 13 to 15 d

Q: CC(=O)Oc1c(C)nn(C)c(=O)c1-c1ccc(F)c2ccccc12 [Compound 90] was tested. Which “Barnyardgrass plant response rating” value [1, 15] did it give?
A: 30

Q: And the “Plant response rating, Barnyardgrass” value [1, 16]?
A: 50

Q: What about the “Plant response rating, Barnyardgrass” value [1, 17] of the same compound?
A: 70

Q: What about the “Plant response rating, Barnyardgrass” value [1, 18] of the same compound?
A: 35

Q: And the “Plant response rating, Barnyardgrass” value [1, 19]?
A: 65

Q: What about the “Plant response rating, Barnyardgrass” value [1, 20] of the same compound?
A: 75

Q: And the “Barnyardgrass plant response rating” value [1, 21]?
A: 95

Q: And the “Barnyardgrass plant response rating” value [1, 22]?
A: 35

Q: And the “Blackgrass plant response rating” value [2, 15]?
A: 10

Q: What about the “Plant response rating, Blackgrass” value [2, 16] of the same compound?
A: 25

Q: What about the “Plant response rating, Blackgrass” value [2, 17] of the same compound?
A: 40

Q: And the “Plant response rating, Blackgrass” value [2, 18]?
A: 25

Q: What about the “Plant response rating, Blackgrass” value [2, 19] of the same compound?
A: 40

Q: And the “Plant response rating, Blackgrass” value [2, 20]?
A: 50

Q: What about the “Blackgrass plant response rating” value [2, 21] of the same compound?
A: 55

Q: And the “Blackgrass plant response rating” value [2, 22]?
A: 15

Q: What about the “Corn plant response rating” value (corn (Zea mays); [15]) of the same compound?
A: 5

Q: What about the “Plant response rating, Corn” value (corn (Zea mays); [16]) of the same compound?
A: 10

Q: What about the “Plant response rating, Corn” value (corn (Zea mays); [17]) of the same compound?
A: 25

Q: What about the “Plant response rating, Corn” value (corn (Zea mays); [18]) of the same compound?
A: 0

Q: And the “Plant response rating, Corn” value (corn (Zea mays); [19])?
A: 0

Q: And the “Plant response rating, Corn” value (corn (Zea mays); [20])?
A: 5

Q: And the “Corn plant response rating” value (corn (Zea mays); [21])?
A: 30

Q: And the “Corn plant response rating” value (corn (Zea mays); [22])?
A: 10

Q: What about the “Plant response rating, Crabgrass, Large” value [3, 16] of the same compound?
A: 35

Q: And the “Plant response rating, Crabgrass, Large” value [3, 17]?
A: 75

Q: And the “Plant response rating, Crabgrass, Large” value [3, 18]?
A: 35

Q: And the “Plant response rating, Crabgrass, Large” value [3, 19]?
A: 70

Q: And the “Plant response rating, Crabgrass, Large” value [3, 20]?
A: 75

Q: What about the “Crabgrass, Large plant response rating” value [3, 21] of the same compound?
A: 85

Q: And the “Crabgrass, Large plant response rating” value [3, 22]?
A: 15

Q: And the “Plant response rating, Foxtail, Giant” value [4, 16]?
A: 55

Q: What about the “Plant response rating, Foxtail, Giant” value [4, 17] of the same compound?
A: 75

Q: And the “Plant response rating, Foxtail, Giant” value [4, 18]?
A: 75

Q: What about the “Plant response rating, Foxtail, Giant” value [4, 19] of the same compound?
A: 75

Q: And the “Plant response rating, Foxtail, Giant” value [4, 20]?
A: 90

Q: And the “Foxtail, Giant plant response rating” value [4, 21]?
A: 95

Q: What about the “Foxtail, Giant plant response rating” value [4, 22] of the same compound?
A: 25

Q: What about the “Plant response rating, Galium” value [5, 23] of the same compound?
A: 95

Q: What about the “Plant response rating, Galium” value [5, 24] of the same compound?
A: 95

Q: What about the “Galium plant response rating” value [5, 22] of the same compound?
A: 95

Q: What about the “Plant response rating, Johnsongrass” value [6, 16] of the same compound?
A: 10

Q: What about the “Plant response rating, Johnsongrass” value [6, 17] of the same compound?
A: 20

Q: And the “Plant response rating, Johnsongrass” value [6, 18]?
A: 50

Q: And the “Plant response rating, Johnsongrass” value [6, 19]?
A: 55

Q: What about the “Plant response rating, Johnsongrass” value [6, 20] of the same compound?
A: 60

Q: And the “Johnsongrass plant response rating” value [6, 21]?
A: 65

Q: And the “Johnsongrass plant response rating” value [6, 22]?
A: 10

Q: And the “Plant response rating, Morningglory” value [7, 16]?
A: 100

Q: What about the “Plant response rating, Morningglory” value [7, 17] of the same compound?
A: 100

Q: What about the “Plant response rating, Morningglory” value [7, 18] of the same compound?
A: 85

Q: And the “Plant response rating, Morningglory” value [7, 19]?
A: 85

Q: What about the “Plant response rating, Morningglory” value [7, 20] of the same compound?
A: 98

Q: What about the “Morningglory plant response rating” value [7, 21] of the same compound?
A: 98

Q: What about the “Morningglory plant response rating” value [7, 22] of the same compound?
A: 100

Q: And the “Plant response rating, Oilseed Rape” value [8, 16]?
A: 0

Q: What about the “Plant response rating, Oilseed Rape” value [8, 17] of the same compound?
A: 5

Q: And the “Plant response rating, Oilseed Rape” value [8, 18]?
A: 30

Q: And the “Plant response rating, Oilseed Rape” value [8, 19]?
A: 35

Q: And the “Plant response rating, Oilseed Rape” value [8, 20]?
A: 50

Q: And the “Oilseed Rape plant response rating” value [8, 21]?
A: 90

Q: What about the “Oilseed Rape plant response rating” value [8, 22] of the same compound?
A: 0

Q: What about the “Plant response rating, Pigweed” value [9, 16] of the same compound?
A: 95

Q: And the “Plant response rating, Pigweed” value [9, 17]?
A: 100

Q: And the “Plant response rating, Pigweed” value [9, 18]?
A: 100

Q: What about the “Plant response rating, Pigweed” value [9, 19] of the same compound?
A: 100

Q: What about the “Plant response rating, Pigweed” value [9, 20] of the same compound?
A: 100

Q: And the “Pigweed plant response rating” value [9, 21]?
A: 100

Q: And the “Pigweed plant response rating” value [9, 22]?
A: 80

Q: What about the “Plant response rating, Ragweed” value [10, 16] of the same compound?
A: 95

Q: And the “Plant response rating, Ragweed” value [10, 17]?
A: 100

Q: And the “Plant response rating, Ragweed” value [10, 18]?
A: 80

Q: And the “Plant response rating, Ragweed” value [10, 19]?
A: 90

Q: What about the “Plant response rating, Ragweed” value [10, 20] of the same compound?
A: 85

Q: What about the “Ragweed plant response rating” value [10, 21] of the same compound?
A: 95

Q: And the “Ragweed plant response rating” value [10, 22]?
A: 85

Q: And the “Plant response rating, Soybean” value (soybean (Glycine max); [16])?
A: 55

Q: What about the “Plant response rating, Soybean” value (soybean (Glycine max); [17]) of the same compound?
A: 70

Q: And the “Plant response rating, Soybean” value (soybean (Glycine max); [18])?
A: 0

Q: And the “Plant response rating, Soybean” value (soybean (Glycine max); [19])?
A: 0

Q: What about the “Plant response rating, Soybean” value (soybean (Glycine max); [20]) of the same compound?
A: 10

Q: What about the “Soybean plant response rating” value (soybean (Glycine max); [21]) of the same compound?
A: 100

Q: And the “Soybean plant response rating” value (soybean (Glycine max); [22])?
A: 50

Q: What about the “Plant response rating, Velvetleaf” value [11, 16] of the same compound?
A: 98

Q: And the “Plant response rating, Velvetleaf” value [11, 17]?
A: 98

Q: What about the “Plant response rating, Velvetleaf” value [11, 18] of the same compound?
A: 85

Q: What about the “Plant response rating, Velvetleaf” value [11, 19] of the same compound?
A: 90

Q: And the “Plant response rating, Velvetleaf” value [11, 20]?
A: 95

Q: What about the “Velvetleaf plant response rating” value [11, 21] of the same compound?
A: 95

Q: And the “Velvetleaf plant response rating” value [11, 22]?
A: 75

Q: What about the “Plant response rating, Waterhemp” value [12, 16] of the same compound?
A: 100

Q: What about the “Plant response rating, Waterhemp” value [12, 17] of the same compound?
A: 100

Q: What about the “Plant response rating, Waterhemp” value [12, 18] of the same compound?
A: 75

Q: What about the “Plant response rating, Waterhemp” value [12, 19] of the same compound?
A: 90

Q: What about the “Plant response rating, Waterhemp” value [12, 20] of the same compound?
A: 100

Q: And the “Waterhemp plant response rating” value [12, 21]?
A: 100

Q: And the “Waterhemp plant response rating” value [12, 22]?
A: 100

Q: And the “Plant response rating, Wheat” value [13, 16]?
A: 10

Q: And the “Plant response rating, Wheat” value [13, 17]?
A: 30

Q: And the “Plant response rating, Wheat” value [13, 18]?
A: 5

Q: What about the “Plant response rating, Wheat” value [13, 19] of the same compound?
A: 0

Q: What about the “Plant response rating, Wheat” value [13, 20] of the same compound?
A: 35

Q: What about the “Wheat plant response rating” value [13, 21] of the same compound?
A: 40

Q: What about the “Wheat plant response rating” value [13, 22] of the same compound?
A: 10

Q: And the “Plant response rating, Kochia” value (kochia (Kochia scoparia); [23])?
A: 100

Q: And the “Plant response rating, Kochia” value (kochia (Kochia scoparia); [24])?
A: 100

Q: And the “Kochia plant response rating” value (kochia (Kochia scoparia); [22])?
A: 100

Q: And the “Plant response rating, Oat, Wild” value [14, 23]?
A: 90

Q: What about the “Plant response rating, Oat, Wild” value [14, 24] of the same compound?
A: 95

Q: What about the “Oat, Wild plant response rating” value [14, 22] of the same compound?
A: 70
